Consider 68 compounds from patent publication US7176228B2, “Pyrazole biphenylcarboxamides” (Bayer Cropscience AG, priority 2000, dated 2007).

The nature of the data set: logP determination by HPLC on a reversed-phase column (EEC Directive 79/831 Annex V.A8). The following applies: reversed-phase C18 HPLC column, reversed-phase column (C 18), 43° C., acidic range (a): 0.1% aqueous phosphoric acid, acetonitrile gradient 10% to 90%. The format is physicochemical. How it is done:
[table] Calibration was carried out using unbranched alkan-2-ones (having 3 to 16 carbon atoms) with known logP values (determination of the logP values by the retention times using linear interpolation between two successive alkanones).
Broadly, the chromatographic logP is a lipophilicity value derived from retention on a column. A low value points to a more hydrophilic compound. For the compound `CO/N=C/c1cccc(-c2ccccc2NC(=O)c2sc(C)nc2C(F)(F)F)c1` [Example 2], the chromatographic logP came to 3.42.

`CCCCO/N=C\c1ccc(-c2ccccc2NC(=O)c2sc(C)nc2C(F)(F)F)cc1` [Example 3]: the chromatographic logP is 4.65.

For the compound `Cc1nc(C(F)(F)F)c(C(=O)Nc2ccccc2-c2ccc(/C=N\OC(C)C)cc2)s1` [Example 5], the chromatographic logP came out at 4.23.

As to `CO/N=C\c1ccc(-c2ccccc2NC(=O)c2c(C)nn(C)c2Cl)cc1` [Example 17], the chromatographic logP came to 3.24.

`CO/N=C\c1ccc(-c2ccccc2NC(=O)c2cn(C)cc2C)cc1` [Example 19] gave a chromatographic logP of 5.1.

Compound `CCCCO/N=C/c1ccc(-c2ccccc2NC(=O)c2cn(C)nc2C(F)(F)F)cc1` [Example 22] registered a chromatographic logP of 4.26.

Consider `CCCO/N=C/c1ccc(-c2ccccc2NC(=O)c2sc(C)nc2C(F)(F)F)cc1` [Example 23], for which the chromatographic logP was 4.26.

On to `CCCO/N=C/c1ccc(-c2ccccc2NC(=O)c2cn(C)nc2C(F)(F)F)cc1` [Example 28], for which the chromatographic logP is 3.86.

Take `Cc1nc(C(F)(F)F)c(C(=O)Nc2ccccc2-c2ccc(/C=N\O)cc2)s1` [Example 30]: the chromatographic logP is 2.78.

`CO/N=C/c1ccc(-c2ccccc2NC(=O)c2sc(N(C)C)nc2C(F)(F)F)cc1` [Example 32] showed a chromatographic logP of 3.84.

With `CO/N=C/c1ccc(-c2ccccc2NC(=O)c2cccnc2OC)cc1` [Example 33], the chromatographic logP was found to be 4.12.

For the compound `CO/N=C/c1ccc(-c2ccccc2NC(=O)c2ccc(OC)nc2OC)cc1` [Example 34], the chromatographic logP was determined as 4.73.

`CO/N=C/c1ccc(-c2ccccc2NC(=O)c2cccnc2C)cc1` [Example 35] showed a chromatographic logP of 2.04.

The compound `CO/N=C/c1ccc(-c2ccccc2NC(=O)c2ccccc2C(F)(F)F)cc1` [Example 36] showed a chromatographic logP of 3.75.

`CO/N=C/c1ccc(-c2ccccc2NC(=O)c2sc(Cl)nc2C(F)(F)F)cc1` [Example 37] returned a chromatographic logP of 4.08.

Turning to `CO/N=C/c1ccc(-c2ccccc2NC(=O)c2ccccc2Cl)cc1` [Example 38], the chromatographic logP is 3.59.

In turn, `CO/N=C/c1ccc(-c2ccccc2NC(=O)c2ccccc2Br)cc1` [Example 39] returned a chromatographic logP of 3.61.

`CO/N=C/c1ccc(-c2ccccc2NC(=O)c2ccccc2C)cc1` [Example 40] registered a chromatographic logP of 3.56.

`Cn1cc(C(=O)Nc2ccccc2-c2ccc(/C=N\O)cc2)c(C(F)(F)F)n1` [Example 41] came in with a chromatographic logP of 3.19.

As to `CO/N=C/c1ccc(-c2ccccc2NC(=O)c2ccoc2C)cc1` [Example 42], the chromatographic logP was 3.47.

Turning to `CO/N=C/c1cccc(-c2ccccc2NC(=O)c2ccoc2C)c1` [Example 43], the chromatographic logP was found to be 3.47.

Take `CO/N=C/c1cccc(-c2ccccc2NC(=O)c2ccccc2C(F)(F)F)c1` [Example 44]: the chromatographic logP came out at 3.76.

In turn, `CO/N=C/c1ccc(-c2ccccc2NC(=O)c2ccccc2I)cc1` [Example 45] registered a chromatographic logP of 3.73.

`CO/N=C/c1cccc(-c2ccccc2NC(=O)c2ccccc2I)c1` [Example 46] came in with a chromatographic logP of 3.73.

Turning to `CO/N=C/c1ccc(-c2ccccc2NC(=O)c2sccc2C)cc1` [Example 47], the chromatographic logP was 3.86. The chromatographic logP values of the last two compounds are within 0.2 log units of each other.

In the case of `CO/N=C/c1cccc(-c2ccccc2NC(=O)c2sccc2C)c1` [Example 48], the chromatographic logP stood at 3.84.

As to `CO/N=C/c1ccc(-c2ccccc2NC(=O)c2cn(C)nc2C(F)(F)F)cc1Cl` [Example 49], the chromatographic logP was 3.54.

`CO/N=C\c1cc(-c2ccccc2NC(=O)c2cn(C)nc2C(F)(F)F)ccc1/C=N/OC` [Example 50] showed a chromatographic logP of 3.36.

The compound `CO/N=C/c1ccc(-c2c(C)cccc2NC(=O)c2sc(C)nc2C(F)(F)F)cc1` [Example 51] yielded a chromatographic logP of 3.78.

Compound `CO/N=C/c1cccc(-c2ccccc2NC(=O)c2cn(C)nc2C(F)(F)F)c1` [Example 52] gave a chromatographic logP of 3.25.

Compound `CO/N=C/c1ccc(-c2ccccc2NC(=O)C2=C(C)OCCS2)cc1` [Example 53] registered a chromatographic logP of 3.75.

`CO/N=C/c1ccc(-c2ccccc2NC(=O)c2ccco2)cc1` [Example 54] came in with a chromatographic logP of 3.2.

As for `CO/N=C/c1cccc(-c2ccccc2NC(=O)c2ccco2)c1` [Example 55], the chromatographic logP was 3.2.

In turn, `CO/N=C/c1ccc(-c2ccccc2NC(=O)c2sccc2Br)cc1` [Example 56] registered a chromatographic logP of 4.39.

`CO/N=C/c1cccc(-c2ccccc2NC(=O)c2sccc2Br)c1` [Example 57] had a chromatographic logP of 4.39.

In the case of `CO/N=C/c1cccc(-c2ccccc2NC(=O)c2c(C)nn(C)c2Cl)c1` [Example 58], the chromatographic logP stood at 3.37.

For `CO/N=C/c1cccc(-c2ccccc2NC(=O)C2=C(C)OCCS2)c1` [Example 59], the chromatographic logP was found to be 3.64.

For the compound `CO/N=C/c1ccc(-c2ccccc2NC(=O)c2sc(C)nc2C(F)F)cc1` [Example 60], the chromatographic logP came to 3.26.

The compound `CO/N=C/c1cccc(-c2ccccc2NC(=O)c2sc(C)nc2C(F)F)c1` [Example 61] gave a chromatographic logP of 3.26.

For the compound `CO/N=C/c1ccc(-c2ccccc2NC(=O)c2ccc(C(F)(F)F)o2)cc1` [Example 62], the chromatographic logP came to 3.99.

The compound `CO/N=C/c1cccc(-c2ccccc2NC(=O)c2ccc(C(F)(F)F)o2)c1` [Example 63] showed a chromatographic logP of 4.02.

As for `CO/N=C/c1ccc(-c2ccccc2NC(=O)c2cc(C)oc2C(F)(F)F)cc1` [Example 64], the chromatographic logP came out at 3.94.

`CO/N=C/c1cccc(-c2ccccc2NC(=O)c2cc(C)oc2C(F)(F)F)c1` [Example 65] showed a chromatographic logP of 3.97.

Compound `CO/N=C/c1ccc(-c2ccccc2NC(=O)c2cn(C)cc2C(C)C)cc1` [Example 66] gave a chromatographic logP of 3.82.

The compound `CO/N=C/c1ccc(-c2ccccc2NC(=O)c2sc(Cl)nc2C)cc1` [Example 67] displayed a chromatographic logP of 3.75.

`CO/N=C/c1cccc(-c2ccccc2NC(=O)c2sc(Cl)nc2C)c1` [Example 68] returned a chromatographic logP of 3.75.

In the case of `CO/N=C/c1cccc(-c2ccccc2NC(=O)c2nc(C)oc2C(F)(F)F)c1` [Example 70], the chromatographic logP came out at 4.45.

As for `CO/N=C/c1ccc(-c2ccccc2NC(=O)c2ccc(Br)o2)cc1` [Example 71], the chromatographic logP came to 3.78.

As to `CO/N=C/c1cccc(-c2ccccc2NC(=O)c2ccc(Br)o2)c1` [Example 72], the chromatographic logP stood at 3.8. The chromatographic logP values of the last two compounds are within 0.2 log units of each other.

`CO/N=C/c1cccc(-c2ccccc2NC(=O)c2sc(N(C)C)nc2C(F)(F)F)c1` [Example 73]: the chromatographic logP was 4.

In turn, `CO/N=C/c1ccc(-c2ccccc2NC(=O)c2sc(C)nc2C(F)(F)F)cc1Cl` [Example 74] registered a chromatographic logP of 3.95.

Turning to `CCCCO/N=C(/C)c1ccc(-c2ccccc2NC(=O)c2sc(C)nc2C(F)(F)F)cc1` [Example 77], the chromatographic logP worked out at 4.77.

In the case of `CCc1nn(C)c(Cl)c1C(=O)Nc1ccccc1-c1ccc(/C=N/OC)cc1` [Example 95], the chromatographic logP amounted to 3.68.

For `CCc1nn(C)c(Cl)c1C(=O)Nc1ccccc1-c1cccc(/C=N/OC)c1` [Example 96], the chromatographic logP was 3.72.

In the case of `CO/N=C/c1ccc(-c2ccccc2NC(=O)c2c(C3CC3)nn(C)c2Cl)cc1` [Example 97], the chromatographic logP came to 3.76.

Compound `CO/N=C/c1cccc(-c2ccccc2NC(=O)c2c(C3CC3)nn(C)c2Cl)c1` [Example 98] returned a chromatographic logP of 3.81.

With `CO/N=C/c1ccc(-c2ccccc2NC(=O)c2cc(Cl)sc2Cl)cc1` [Example 99], the chromatographic logP is 4.67.

With `CO/N=C/c1cccc(-c2ccccc2NC(=O)c2cc(Cl)sc2Cl)c1` [Example 100], the chromatographic logP came out at 4.72. The chromatographic logP values of the last two compounds are within 0.2 log units of each other.

Regarding `CO/N=C/c1ccc(-c2ccccc2NC(=O)c2ccc([N+](=O)[O-])o2)cc1` [Example 101], the chromatographic logP is 3.26.

Compound `CO/N=C/c1cccc(-c2ccccc2NC(=O)c2ccc([N+](=O)[O-])o2)c1` [Example 102] registered a chromatographic logP of 3.26.

Regarding `CCn1nc(C)c(C(=O)Nc2ccccc2-c2ccc(/C=N/OC)cc2)c1Cl` [Example 103], the chromatographic logP was 3.87.

On to `CO/N=C/c1ccc(-c2ccccc2NC(=O)c2ccsc2)cc1` [Example 108], for which the chromatographic logP is 3.1.

`CO/N=C/c1ccc(-c2ccccc2NC(=O)c2ccsc2C)cc1` [Example 110] gave a chromatographic logP of 3.58.

Consider `CO/N=C/c1cccc(-c2ccccc2NC(=O)c2ccsc2C)c1` [Example 111], for which the chromatographic logP was determined as 3.59.

In turn, `CO/N=C/c1ccc(-c2ccccc2NC(=O)c2cn(C)nc2C(F)(F)F)cc1F` [Example 112] gave a chromatographic logP of 3.21.

`CO/N=C/c1ccc(-c2ccccc2NC(=O)c2cccnc2O)cc1` [Example 113] registered a chromatographic logP of 2.43.

Consider `CO/N=C/c1ccc(-c2ccccc2NC(=O)c2cn(C)nc2C(F)F)cc1F` [Example 114], for which the chromatographic logP was 3.

With `CCCO/N=C/c1ccc(-c2ccccc2NC(=O)c2c(C)nn(C)c2Cl)cc1` [Example 118], the chromatographic logP is 4.22.
